ChEMBL document CHEMBL4334477, “Bioactive Sesquiterpene Lactones Isolated from the Whole Plants of Vernonia cinerea” (J Nat Prod, 2019)

Assays:
RAW264.7 [1] = assay: Cytotoxicity against mouse RAW264.7 cells assessed as cell proliferation at 10 ug/ml pretreated with LPS for 24 hrs followed by overnight incubation with compound by MTS assay; assay type: cell-based
RAW264.7 [2] = assay: Antiinflammatory activity against mouse RAW264.7 cells assessed as inhibition of LPS-induced nitric oxide overproduction pretreated with LPS for 24 hrs followed by overnight incubation with compound by Griess assay; assay type: functional, cell-based
HeLa = assay: Cytotoxicity against human HeLa cells assessed as inhibition of cell proliferation measured after 48 hrs by MTS assay; assay type: functional, cell-based

IC50 (RAW264.7 [2]) [µM] | SMILES | Activity (RAW264.7 [1]) | IC50 (HeLa) [µM]
21 | C/C=C(\C)C(=O)O[C@H]1C[C@@H](C)[C@@]2(O)CC[C@@](C)(/C=C3/OC(=O)C(COC(C)=O)=C31)O2 | Non-Toxic | 32
– | C=C(C)C(=O)O[C@H]1C[C@@]23CO[C@@H](C[C@](C)(/C=C4/OC(=O)C(COC(C)=O)=C41)O2)[C@@H]3O | – | > 10
– | C=C(C)C(=O)O[C@H]1C[C@@]23CO[C@@H](C[C@](C)(/C=C4/OC(=O)C(COC)=C41)O2)[C@@H]3O | – | > 10
23 | C=C(C)C(=O)O[C@H]1C[C@@H](C)[C@@]2(O)CC[C@@](C)(/C=C3/OC(=O)C(COC(C)=O)=C31)O2 | Non-Toxic | 35
– | C=C(C)C(=O)O[C@H]1C[C@@]23CO[C@@H](C[C@](C)(C[C@@]4(OC)OC(=O)C(COC(C)=O)=C14)O2)[C@@H]3O | – | > 10
– | C/C=C(\C)C(=O)O[C@H]1C[C@@]23CO[C@@H](C[C@](C)(C[C@@]4(OC)OC(=O)C(COC(C)=O)=C14)O2)[C@@H]3O | – | > 10
– | C/C=C(\C)C(=O)O[C@H]1C[C@@]23CO[C@@H](C[C@](C)(/C=C4/OC(=O)C(COC)=C41)O2)[C@@H]3O | – | > 10
– | C/C=C(\C)C(=O)O[C@H]1C[C@@]23CO[C@@H](C[C@](C)(/C=C4/OC(=O)C(COC(C)=O)=C41)O2)[C@@H]3O | – | > 10
– | Cc1c2ccncc2c(C)c2c1[nH]c1ccccc12 [ELLIPTECINE] | – | 2
